Target: T1, HIV protease (Human immunodeficiency virus type 1 group M subtype B, UniProt P12497)
T1 construct: HIV protease expressed in Escherichia coli; made in house; host or cells: Escherichia coli
Assay: Assay for Inhibition of Recombinant HIV Protease (APRIN 2.1)
Assay type: biochemical
Details: Conc. 1 ng/ml; read-out: APRIN 2.1 Act. (% Inhib.)
Description: Assay for Inhibition of Recombinant HIV Protease (APRIN 2.1)
Inhibition studies were performed on the reaction of the HIV protease expressed in Escherichia coli with a tritiated peptide substrate, [^3 H]-acetyl-Val-Ser-Gln-Asn-(beta-napthyl-Ala)-Pro-Ile-Val-Gln-Gly-Arg -Arg-NH2 (MW 1800). The two arginine residues at the carboxyl terminus give this peptide an overall positive charge at acidic pH and enable it to bind to the H^+ form of DOWEX AG-50W-X8 resin and similar resins.
Aliquots of 25 μl containing 6.0-8.0 nM HIV protease in assay buffer (100 mM sodium acetate, pH 5.5 and 0.1% BSA) are placed in assay tubes. The reaction is initiated by addition of 25 μl aliquots of 4.2 μM tritiated peptide substrate in 100 mM sodium acetate, pH 5.5. After incubation for 60 min at 37° C., the reaction is stopped with 100 μl of 5% H3 PO4, then analysed by application of column chromatography.

**Q.** With `CC(C)(C)OC(=O)N[C@@H](Cc1ccccc1)[C@@H](O)C[C@@H](Cc1ccc(OCC(=O)O)cc1)C(=O)N[C@H]1c2ccccc2C[C@H]1O` [L-694,746] as the molecule, how does the inhibition at 0.001 µg/mL read?
**A.** 88%

From patent US5192668A, “Synthesis of protease inhibitor” (Merck & Co., Inc., priority 1992, dated 1993)
